Data on 16 compounds can be found in US20230303575A1, “FGFR AND MUTATION INHIBITOR THEREOF, PREPARATION METHOD THEREFOR AND USE THEREOF” (Abbisko Therapeutics Co., Ltd., priority 2020, published 2023).

As a reminder, the IC50 is the concentration at which inhibition is half-maximal. The low end stands for higher potency, the high end for lower potency.

Common to all, as to type: cell-based
For assay [1], the target named is T1, FGFR2 V564F (Homo sapiens, UniProt P21802, V564F).
T1 construct: P41212 (Transcription factor ETV6)
T1 sequence (P21802 481-770 V564F limits assumed): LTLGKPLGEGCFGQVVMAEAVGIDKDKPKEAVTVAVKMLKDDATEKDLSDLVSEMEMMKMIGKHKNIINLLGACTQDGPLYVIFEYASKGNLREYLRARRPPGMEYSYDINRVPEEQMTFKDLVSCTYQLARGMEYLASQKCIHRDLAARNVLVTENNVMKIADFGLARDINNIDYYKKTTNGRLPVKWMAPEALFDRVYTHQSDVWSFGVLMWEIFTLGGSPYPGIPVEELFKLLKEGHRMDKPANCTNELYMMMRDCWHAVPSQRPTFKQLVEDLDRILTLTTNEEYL
The assay is described as follows: Cell proliferation assay for Tel-FGFR2 V564F in BaF3. The note with it: BaF3 cells expressing FGFR2 V564F fusion, 48 hrs, CellTiter Glo. As for the experimental part:
(§1) By transfection, cell strains of the intracellular kinase domain fusion protein of TEL-FGFR2 WT or the intracellular domain fusion proteins containing FGFR2 V564, V564F, V564L, N549K and K659M mutations were stably expressed in Baf cells. On day 1, the cell suspension was plated into a 96-well plate containing growth medium (DMEM containing 1% Glutamax, 10% FBS and 1% Pen/Strep) at 2000-4000 cells/90 μL/per well, and then the mixture was incubated overnight at 37° C. and 5% CO2. On day 2, 10 μL of growth medium containing a 10-fold stock solution of test compound was added to the cell culture (9 dose points, 3× serial dilution, starting from 1 μM, finally 0.3% DMSO). After incubation at 37° C. and 5% CO2 for 48 hrs, 50 μL of CellTiter Glo (CTG) reagent was added to the cell-containing 96-well plate on day 3, and the plate was then incubated at room temperature for 10 min. Then relative light units (RLUs) were measured on a microplate reader with a luminescence detection module. RLU values were normalized to % survival, and concentration-response curves were plotted using Prism to calculate IC50 (nM).
(In general: ATP-based viability assays read luminescence as a measure of living cells.)

For assay [2], the target named is T2, FGFR2 V564L (Homo sapiens, UniProt P21802, V564L).
T2 construct: P41212 (Transcription factor ETV6)
T2 sequence (P21802 481-770 V564L limits assumed): as the sequence (P21802 481-770 V564F limits assumed) above, with F84L counted along it
The assay is described as follows: Cell proliferation assay for Tel-FGFR2 V564L in BaF3. The note with it: BaF3 cells expressing FGFR2 V564L fusion, 48 hrs, CellTiter Glo. As for the experimental part:
as §1

The target in assay [3] is T3, FGFR2 N549K (Homo sapiens, UniProt P21802, N549K).
T3 construct: P41212 (Transcription factor ETV6)
T3 sequence (P21802 481-770 N549K limits assumed): as the sequence (P21802 481-770 V564F limits assumed) above, with N69K, F84V counted along it
The assay is described as follows: Cell proliferation assay for Tel-FGFR2 N549K in BaF3. The note with it: BaF3 cells expressing FGFR2 N549K fusion, 48 hrs, CellTiter Glo. As for the experimental part:
as §1

The target in assay [4] is T4, FGFR3 V555M (Homo sapiens, UniProt P22607, V555M).
T4 construct: P41212 (Transcription factor ETV6)
T4 sequence (P22607 472-761 V555M limits assumed): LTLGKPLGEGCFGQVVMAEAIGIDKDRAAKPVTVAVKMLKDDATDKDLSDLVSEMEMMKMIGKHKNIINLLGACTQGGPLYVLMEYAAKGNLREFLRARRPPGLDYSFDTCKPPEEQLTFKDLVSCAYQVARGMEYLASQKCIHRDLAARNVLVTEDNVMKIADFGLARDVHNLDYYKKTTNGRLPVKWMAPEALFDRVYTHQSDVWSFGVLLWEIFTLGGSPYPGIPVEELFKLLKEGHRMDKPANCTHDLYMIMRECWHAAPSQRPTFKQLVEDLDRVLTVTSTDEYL
In words: Cell proliferation assay for FGFR3 V555M in BaF3. The note with it: BaF3 cells expressing FGFR3 V555M fusion, 48 hrs, CellTiter Glo. Here is the method:
For the compounds of the Examples of the present invention, cell strains of TEL-FGFR3 WT intracellular kinase domain fusion protein or intracellular domain fusion protein containing FGFR3 V555M or FGFR3 N540K mutation were stably expressed in Baf cells by transfection and were used to determine the cell proliferation effect of BaF3-Tel-FGFR3 WT. FGFR3 V555M or FGFR3 N540K. The specific test process was as follows: • 1) The cell suspension was plated into a 96-well plate containing growth medium (DMEM containing 1% Glutamax, 10% FBS and 1% Pen/Strep) at 2000-4000 cells/90 μL/per well, and then the mixture was incubated overnight at 37° C. and 5% CO2. • 2) 10 μL of growth medium containing a 10-fold stock solution of test compound was added to the cell culture (9 dose points, 3× serial dilution, starting from 1 μM, finally 0.3% DMSO). • 3) The mixture was incubated at 37° C. and 5% CO2 for 48 hrs. • 4) 50 μL of CellTiter Glo (CTG) reagent was added to the cell-containing 96-well plate, and the plate was then incubated at room temperature for 10 min. • 5) Relative light units (RLUs) were measured on a microplate reader with a luminescence detection module. RLU values were normalized to % survival, and concentration-response curves were plotted using Prism to calculate IC50 (nM).

In assay [5] the target is T5, FGFR2 V564I (Homo sapiens, UniProt P21802, V564I).
T5 construct: P41212 (Transcription factor ETV6)
T5 sequence (P21802 481-770 V564I limits assumed): as the sequence (P21802 481-770 V564F limits assumed) above, with F84I counted along it
In words: Cell proliferation assay for Tel-FGFR2 V564I in BaF3. To be noted: BaF3 cells expressing FGFR2 V564I fusion, 48 hrs, CellTiter Glo. As for the experimental part: as §1

As to `C=CC(=O)N1CC[C@H](n2cc(C#Cc3ccc4oc(C)nc4c3)c3c(N)ncnc32)C1` [Example 2, (S)-1-(3-(4-amino-5-((2-methylbenzo[d]oxazol-5-yl)ethynyl)-7H-pyrrolo[2,3-d]pyrimidin-7-yl)pyrrolidin-1-yl)prop-2-en-1-one], the half-inhibitory concentration (IC50) was ≤ 0.5 nM in assay [1], 0.5 to 5 nM in assay [2], 0.5 to 5 nM in assay [3] and 5 to 50 nM in assay [4].

Take `C=CC(=O)N1CC[C@H](n2cc(C#Cc3ccc4oc(CC)nc4c3)c3c(N)ncnc32)C1` [Example 3, (S)-1-(3-(4-amino-5-((2-ethylbenzo[d]oxazol-5-yl)ethynyl)-7H-pyrrolo[2,3-d]pyrimidin-7-yl)pyrrolidin-1-yl)prop-2-en-1-one]: the half-maximal inhibitory concentration (IC50) in assay [1] lay in the range of 0.5 to 5 nM; in assay [2], 0.5 to 5 nM; in assay [3] it was 0.5 to 5 nM; in assay [4], 5 to 50 nM.

Regarding `C=CC(=O)N1CC[C@H](n2cc(C#Cc3ccc4oc(NC)nc4c3)c3c(N)ncnc32)C1` [Example 7, (S)-1-(3-(4-amino-5-((2-(methylamino)benzo[d]oxazol-5-yl)ethynyl)-7H-pyrrolo[2,3-d]pyrimidin-7-yl)pyrrolidin-1-yl)prop-2-en-1-one], the IC50 in assay [1] was in the range of 0.5 to 5 nM; in assay [2] it was 5 to 50 nM; in assay [3], 5 to 50 nM; in assay [4], 5 to 50 nM.

For the compound `C=CC(=O)N1CC[C@H](n2nc(C#Cc3cnc4sc(C)nc4c3)c3c(N)ncnc32)C1` [Example 41, (S)-1-(3-(4-amino-3-((2-methylthiazolo[5,4-6]pyridin-6-yl)ethynyl)-1H-pyrazolo [3,4-d]pyrimidin-1-yl)pyrrolidin-1-yl)prop-2-en-1-one], the IC50 in assay [1] fell in the range of 5 to 50 nM; in assay [2], 0.5 to 5 nM; in assay [3] it was 5 to 50 nM; in assay [4] it was 50 to 500 nM.

Turning to `C=CC(=O)N1CC[C@H](n2cc(C#Cc3ccc4sc(CC)nc4c3)c3c(N)ncnc32)C1` [Example 44, (S)-1-(3-(4-amino-5-((2-ethylbenzo[d]thiazol-5-yl)ethynyl)-7H-pyrrolo[2,3-d]pyrimidin-7-yl)pyrrolidin-1-yl)prop-2-en-1-one], the IC50 is 0.5 to 5 nM in assay [1]; 0.5 to 5 nM in assay [2]; ≤ 0.5 nM in assay [5]; 0.5 to 5 nM in assay [3]; 5 to 50 nM in assay [4].

As to `C=CC(=O)N1CC[C@H](n2cc(C#Cc3ccc4sc(C(F)F)nc4c3)c3c(N)ncnc32)C1` [Example 45, (S)-1-(3-(4-amino-5-((2-(difluoromethyl)benzo[d]thiazol-5-yl)ethynyl)-7H-pyrrolo[2,3-d]pyrimidin-7-yl)pyrrolidin-1-yl)prop-2-en-1-one], the IC50 in assay [1] lay in the range of 0.5 to 5 nM; in assay [2] it was 0.5 to 5 nM; in assay [3] it was 0.5 to 5 nM; in assay [4], 5 to 50 nM.

Turning to `C=CC(=O)N1CC[C@H](n2cc(C#Cc3cc4nc(C5CC5)sc4cc3F)c3c(N)ncnc32)C1` [Example 48, (S)-1-(3-(4-amino-5-((2-cyclopropyl-6-fluorobenzo [d]thiazol-5-yl)ethynyl)-7H-pyrrolo[2,3-d]pyrimidin-7-yl)pyrrolidin-1-yl)prop-2-en-1-one], the IC50 is 0.5 to 5 nM in assay [1]; 0.5 to 5 nM in assay [2]; ≤ 0.5 nM in assay [5]; 0.5 to 5 nM in assay [3]; 0.5 to 5 nM in assay [4].

With `C=CC(=O)N1CC[C@H](n2cc(C#Cc3c(F)cc4sc(C5CC5)nc4c3F)c3c(N)ncnc32)C1` [Example 51, (S)-1-(3-(4-amino-5-((2-cyclopropyl-4,6-difluoro-benzo[d]thiazol-5-yl)ethynyl)-7H-pyrrolo[2,3-d]pyrimidin-7-yl)pyrrolidin-1-yl) prop-2-en-1-one], the concentration for half-maximal inhibition (IC50) is ≤ 0.5 nM in assay [1]; 0.5 to 5 nM in assay [2]; ≤ 0.5 nM in assay [5]; 0.5 to 5 nM in assay [3]; 0.5 to 5 nM in assay [4].

Regarding `C=CC(=O)N1CC[C@H](n2nc(C#Cc3ccc4sc(C)nc4c3)c3c(N)ncnc32)C1` [Example 52, (S)-1-(3-(4-amino-3-((2-methylbenzo[d]thiazol-5-yl)ethynyl)-1H-pyrazolo [3,4-d]pyrimidin-1-yl)pyrrolidin-1-yl)prop-2-en-1-one], the 50% inhibitory concentration (IC50) in assay [1] is 0.5 to 5 nM; in assay [2], 5 to 50 nM; in assay [3], 5 to 50 nM; in assay [4] it was 5 to 50 nM.

As to `C=CC(=O)N1CC[C@H](n2nc(C#Cc3ccc4sc(CC)nc4c3)c3c(N)ncnc32)C1` [Example 53, (S)-1-(3-(4-amino-3-((2-ethylbenzo[d]thiazol-5-yl)ethynyl)-1H-pyrazolo[3,4-d]pyrimidin-1-yl)pyrrolidin-1-yl)prop-2-en-1-one], the half-maximal inhibitory concentration (IC50) was 0.5 to 5 nM in assay [1]; 0.5 to 5 nM in assay [2]; ≤ 0.5 nM in assay [5]; 0.5 to 5 nM in assay [3]; 5 to 50 nM in assay [4].

For `C=CC(=O)N1CC[C@H](n2nc(C#Cc3ccc4sc(C5CC5)nc4c3)c3c(N)ncnc32)C1` [Example 54, (S)-1-(3-(4-amino-3-((2-cyclopropylbenzo[d]thiazol-5-yl)ethynyl)-1H-pyrazolo [3,4-d]pyrimidin-1-yl)pyrrolidin-1-yl)prop-2-en-1-one], the 50% inhibitory concentration (IC50) is 0.5 to 5 nM in assay [1], 0.5 to 5 nM in assay [2], 0.5 to 5 nM in assay [3] and 5 to 50 nM in assay [4].

As for `C=CC(=O)N1CC[C@H](n2nc(C#Cc3ccc4sc(C(F)F)nc4c3)c3c(N)ncnc32)C1` [Example 55, (S)-1-(3-(4-amino-3-((2-(difluoromethyl)benzo[d]thiazol-5-yl)ethynyl)-1H-pyrazolo[3,4-d]pyrimidin-1-yl)pyrrolidin-1-yl)prop-2-en-1-one], the IC50 in assay [1] fell in the range of 5 to 50 nM; in assay [2] it was 5 to 50 nM; in assay [3], 0.5 to 5 nM; in assay [4], 5 to 50 nM.

For the compound `C=CC(=O)N1CC[C@H](n2nc(C#Cc3cc4nc(C)sc4cc3F)c3c(N)ncnc32)C1` [Example 57, (S)-1-(3-(4-amino-3-((6-fluoro-2-methylbenzo[d]thiazol-5-yl)ethynyl)-1H-pyrazolo[3,4-d]pyrimidin-1-yl)pyrrolidin-1-yl)prop-2-en-1-one], the half-inhibitory concentration (IC50) in assay [1] was ≤ 0.5 nM; in assay [2] it was 0.5 to 5 nM; in assay [5] it was ≤ 0.5 nM; in assay [3] it was 0.5 to 5 nM; in assay [4] it was 5 to 50 nM.

On to `C=CC(=O)N1CC[C@H](n2nc(C#Cc3cc4nc(C5CC5)sc4cc3F)c3c(N)ncnc32)C1` [Example 59, (S)-1-(3-(4-amino-3-((2-cyclopropyl-6-fluorobenzo [d]thiazol-5-yl)ethynyl)-1H-pyrazolo[3,4-d]pyrimidin-1-yl)pyrrolidin-1-yl) prop-2-en-1-one], for which the IC50 in assay [1] was 0.5 to 5 nM; in assay [2], 0.5 to 5 nM; in assay [5], ≤ 0.5 nM; in assay [3] it was 0.5 to 5 nM; in assay [4] it was 0.5 to 5 nM.

For `C=CC(=O)N1CC[C@H](n2cc(C#Cc3ccc4oc(C(F)F)nc4c3)c3c(N)ncnc32)C1` [Example 71, (S)-1-(3-(4-amino-5-((2-(difluoromethyl)benzo[d]oxazol-5-yl)ethynyl)-7H-pyrrolo[2,3-d]pyrimidin-7-yl)pyrrolidin-1-yl)prop-2-en-1-one], the IC50 in assay [1] lay within 0.5 to 5 nM; in assay [2], 5 to 50 nM; in assay [3] it was 0.5 to 5 nM; in assay [4] it was 5 to 50 nM.

For `C=CC(=O)N1CC[C@H](n2cc(C#Cc3c(F)cc4oc(N5CCC5)nc4c3F)c3c(N)ncnc32)C1` [Example 73, (S)-1-(3-(4-amino-5-((2-(azetidin-1-yl)-4,6-difluoro-benzo[d]oxazol-5-yl)ethynyl)-7H-pyrrolo[2,3-d]pyrimidin-7-yl)pyrrolidin-1-yl) prop-2-en-1-one], the IC50 in assay [1] is ≤ 0.5 nM; in assay [4], 0.5 to 5 nM.
